Assay results from ChEMBL document CHEMBL1201862, “PubChem BioAssay data set” (2004).
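Briefly, cells in 96-well plates were exposed to five compound concentrations for 48 h, and endpoints were estimated by linear interpolation. At the GI50, growth is halved.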 Activity calls are given as the source filed them. No stated cut-off is given here; in the data, active = GI50 up to about 1.1 µM and inactive = higher.

Legend:
Experiment in all cases: growth of human tumour cells (NCI), 48 h
[1] = system: UO-31
[2] = system: SK-MEL-28
[3] = system: K562
[4] = system: NCI-H226
[5] = system: COLO 205
[6] = system: NCI-H460
[7] = system: HOP-92
[8] = system: SF-268
[9] = system: A498
[10] = system: EKVX
[11] = system: BT-549
[12] = system: A549
[13] = system: T47D
[14] = system: SF-539
[15] = system: RXF 393
[16] = system: MCF7
[17] = system: NCI-H23
[18] = system: HOP-62
[19] = system: SF-295

NNc1nc2ccccc2s1
GI50 [1]: > 100 µM (inactive) | GI50 [2]: > 100 µM (inactive) | GI50 [3]: > 100 µM (inactive) | GI50 [4]: > 100 µM (inactive) | GI50 [5]: > 100 µM (inactive) | GI50 [6]: > 100 µM (inactive) | GI50 [7]: > 100 µM (inactive) | GI50 [8]: > 100 µM (inactive) | GI50 [9]: > 100 µM (inactive) | GI50 [10]: > 100 µM (inactive) | GI50 [11]: > 100 µM (inactive) | GI50 [12]: > 100 µM (inactive) | GI50 [13]: 55.2 µM (inactive) | GI50 [14]: > 100 µM (inactive) | GI50 [15]: > 100 µM (inactive) | GI50 [16]: > 100 µM (inactive) | GI50 [17]: > 100 µM (inactive)

O=c1c2cc(-c3ccccc3)sc2nc2n1N=C(c1ccc(Cl)cc1)CS2
GI50 [1]: > 100 µM (inactive) | GI50 [2]: > 100 µM (inactive) | GI50 [3]: > 100 µM (inactive) | GI50 [4]: > 100 µM (inactive) | GI50 [5]: > 100 µM (inactive) | GI50 [18]: > 100 µM (inactive) | GI50 [6]: > 100 µM (inactive) | GI50 [7]: > 100 µM (inactive) | GI50 [8]: > 100 µM (inactive) | GI50 [9]: > 100 µM (inactive) | GI50 [10]: > 100 µM (inactive) | GI50 [11]: > 100 µM (inactive) | GI50 [12]: > 100 µM (inactive) | GI50 [13]: 57.5 µM (inactive) | GI50 [14]: > 100 µM (inactive) | GI50 [19]: > 100 µM (inactive) | GI50 [15]: > 100 µM (inactive) | GI50 [16]: > 100 µM (inactive) | GI50 [17]: > 100 µM (inactive)

Cc1cc(C2(c3cc(C)c(O)c4ncccc34)OC(=O)c3ccccc32)c2cccnc2c1O
GI50 [1]: 0.00574 µM (active) | GI50 [2]: > 10 µM (inactive) | GI50 [3]: 0.0776 µM (active) | GI50 [4]: 0.01 µM (active) | GI50 [5]: 0.67 µM (active) | GI50 [18]: 0.0217 µM (active) | GI50 [6]: < 0.001 µM (active) | GI50 [7]: 0.252 µM (active) | GI50 [8]: 0.0121 µM (active) | GI50 [9]: 1.47 µM (inactive) | GI50 [10]: 0.0203 µM (active) | GI50 [11]: 0.031 µM (active) | GI50 [12]: < 0.001 µM (active) | GI50 [13]: 0.0382 µM (active) | GI50 [14]: 0.0376 µM (active) | GI50 [19]: 0.0299 µM (active) | GI50 [15]: 0.741 µM (active) | GI50 [16]: < 0.001 µM (active) | GI50 [17]: 0.0187 µM (active)

CC1CC(Br)C(=O)O1 (stereo not drawn)
GI50 [1]: > 100 µM (inactive) | GI50 [2]: > 100 µM (inactive) | GI50 [3]: 47 µM (inactive) | GI50 [5]: > 100 µM (inactive) | GI50 [18]: > 100 µM (inactive) | GI50 [6]: > 100 µM (inactive) | GI50 [7]: > 100 µM (inactive) | GI50 [8]: > 100 µM (inactive) | GI50 [9]: > 100 µM (inactive) | GI50 [10]: > 100 µM (inactive) | GI50 [11]: > 100 µM (inactive) | GI50 [12]: > 100 µM (inactive) | GI50 [13]: > 100 µM (inactive) | GI50 [14]: > 100 µM (inactive) | GI50 [19]: > 100 µM (inactive) | GI50 [15]: > 100 µM (inactive) | GI50 [16]: > 100 µM (inactive) | GI50 [17]: > 100 µM (inactive)

COc1cc(S(=O)(=O)Nc2ccc(-c3csc(N4C(=O)CSC4c4cccc(Oc5ccccc5)c4)n3)cc2)ccc1Cl (stereo not drawn)
GI50 [1]: 47.5 µM (inactive) | GI50 [2]: 23 µM (inactive) | GI50 [3]: 31.9 µM (inactive) | GI50 [4]: 32.1 µM (inactive) | GI50 [5]: 29.4 µM (inactive) | GI50 [18]: 74.3 µM (inactive) | GI50 [7]: 46.7 µM (inactive) | GI50 [8]: 24.3 µM (inactive) | GI50 [9]: 59 µM (inactive) | GI50 [10]: 44.2 µM (inactive) | GI50 [11]: 23.7 µM (inactive) | GI50 [13]: 7.48 µM (inactive) | GI50 [14]: 31.9 µM (inactive) | GI50 [19]: 65.8 µM (inactive) | GI50 [15]: 16.7 µM (inactive) | GI50 [16]: 20.6 µM (inactive) | GI50 [17]: 40.4 µM (inactive)

Cc1cccc(NC(=O)/C=C/c2ccc([N+](=O)[O-])cc2)c1
GI50 [1]: > 35.5 µM (inactive) | GI50 [2]: > 42 µM (inactive) | GI50 [3]: > 29.4 µM (inactive) | GI50 [4]: > 46.7 µM (inactive) | GI50 [5]: > 41.1 µM (inactive) | GI50 [18]: 16.7 µM (inactive) | GI50 [6]: > 43.5 µM (inactive) | GI50 [7]: 15.8 µM (inactive) | GI50 [8]: 38.3 µM (inactive) | GI50 [9]: > 100 µM (inactive) | GI50 [10]: 23.2 µM (inactive) | GI50 [11]: > 34.5 µM (inactive) | GI50 [12]: > 41.7 µM (inactive) | GI50 [13]: > 37.8 µM (inactive) | GI50 [14]: > 29.8 µM (inactive) | GI50 [19]: 29 µM (inactive) | GI50 [15]: 34 µM (inactive) | GI50 [16]: > 22.3 µM (inactive) | GI50 [17]: 16.4 µM (inactive)

O=c1[nH]cc(/N=C/c2cc(Cl)cc(Cl)c2O)c(=O)[nH]1
GI50 [1]: 29.5 µM (inactive) | GI50 [2]: 22.9 µM (inactive) | GI50 [3]: 27.8 µM (inactive) | GI50 [4]: 23.4 µM (inactive) | GI50 [5]: 24.8 µM (inactive) | GI50 [18]: 26.1 µM (inactive) | GI50 [6]: 39.9 µM (inactive) | GI50 [7]: 27.4 µM (inactive) | GI50 [8]: 14.2 µM (inactive) | GI50 [9]: > 100 µM (inactive) | GI50 [10]: 30.7 µM (inactive) | GI50 [11]: 45.1 µM (inactive) | GI50 [12]: > 100 µM (inactive) | GI50 [13]: 21.7 µM (inactive) | GI50 [14]: 24.1 µM (inactive) | GI50 [19]: 47.3 µM (inactive) | GI50 [15]: 26.2 µM (inactive) | GI50 [16]: 25.8 µM (inactive) | GI50 [17]: 24.6 µM (inactive)

CC/C(Cl)=N\OC(=O)Nc1ccc(OC)c(C)c1
GI50 [1]: 15.3 µM (inactive) | GI50 [2]: 23.2 µM (inactive) | GI50 [3]: 15.7 µM (inactive) | GI50 [4]: 26.4 µM (inactive) | GI50 [5]: 15.1 µM (inactive) | GI50 [18]: 34.4 µM (inactive) | GI50 [6]: 41.2 µM (inactive) | GI50 [7]: 2.82 µM (inactive) | GI50 [8]: 29.2 µM (inactive) | GI50 [9]: 26.5 µM (inactive) | GI50 [10]: 3.15 µM (inactive) | GI50 [11]: 12.9 µM (inactive) | GI50 [12]: 27.9 µM (inactive) | GI50 [13]: 13.9 µM (inactive) | GI50 [14]: 17.4 µM (inactive) | GI50 [19]: 80.4 µM (inactive) | GI50 [15]: 14.6 µM (inactive) | GI50 [16]: 16.7 µM (inactive) | GI50 [17]: 15 µM (inactive)

CC(=O)c1ccc(Nc2c3ccccc3nc3occc23)cc1
GI50 [1]: 0.0196 µM (active) | GI50 [2]: 0.643 µM (active) | GI50 [3]: < 0.01 µM (active) | GI50 [4]: 0.168 µM (active) | GI50 [5]: < 0.01 µM (active) | GI50 [18]: 0.0127 µM (active) | GI50 [6]: 0.01 µM (active) | GI50 [7]: 2.56 µM (inactive) | GI50 [8]: < 0.0105 µM (active) | GI50 [9]: 2.32 µM (inactive) | GI50 [11]: 2.12 µM (inactive) | GI50 [12]: 0.124 µM (active) | GI50 [13]: 0.011 µM (active) | GI50 [14]: < 0.01 µM (active) | GI50 [19]: < 0.01 µM (active) | GI50 [15]: < 0.01 µM (active) | GI50 [16]: < 0.01 µM (active) | GI50 [17]: 0.175 µM (active)

CN(C)CCNC(=O)c1cccc2nc3c(nc12)-c1ccccc1C3=O
GI50 [1]: 12.1 µM (inactive) | GI50 [2]: 16 µM (inactive) | GI50 [3]: 3.16 µM (inactive) | GI50 [4]: 14.4 µM (inactive) | GI50 [5]: 17.6 µM (inactive) | GI50 [18]: 6.17 µM (inactive) | GI50 [6]: 4.99 µM (inactive) | GI50 [7]: 16.4 µM (inactive) | GI50 [8]: 11.8 µM (inactive) | GI50 [9]: 14.4 µM (inactive) | GI50 [10]: 22.8 µM (inactive) | GI50 [11]: 14.3 µM (inactive) | GI50 [12]: 12.5 µM (inactive) | GI50 [13]: 12.9 µM (inactive) | GI50 [14]: 10.2 µM (inactive) | GI50 [19]: 17.9 µM (inactive) | GI50 [15]: 16.8 µM (inactive) | GI50 [16]: 6.34 µM (inactive) | GI50 [17]: 13.3 µM (inactive)

CCO[C@H]1O[C@@H]2OC3(C)CCC4[C@H](C)CCC([C@H]1C)[C@]42OO3 (stereo partly drawn)
GI50 [1]: 15.4 µM (inactive) | GI50 [2]: > 75.5 µM (inactive) | GI50 [3]: 15.9 µM (inactive) | GI50 [4]: > 100 µM (inactive) | GI50 [5]: 2.98 µM (inactive) | GI50 [18]: > 100 µM (inactive) | GI50 [6]: > 55 µM (inactive) | GI50 [7]: > 100 µM (inactive) | GI50 [8]: > 100 µM (inactive) | GI50 [9]: > 100 µM (inactive) | GI50 [10]: > 49.1 µM (inactive) | GI50 [11]: > 100 µM (inactive) | GI50 [12]: 40.8 µM (inactive) | GI50 [13]: 7.11 µM (inactive) | GI50 [14]: > 84.7 µM (inactive) | GI50 [19]: > 20.2 µM (inactive) | GI50 [15]: > 100 µM (inactive) | GI50 [16]: 19.4 µM (inactive) | GI50 [17]: 32.1 µM (inactive)
